≈ marks a conversion by molar mass, not a printed value.
Key:
Format in all cases: functional
Aspergillus fumigatus [1] = assay: Antifungal activity against Aspergillus fumigatus at 100 ug/ml by disc diffusion method; conditions: read-out: IZ
Aspergillus fumigatus [2] = assay: Antifungal activity against Aspergillus fumigatus after 24 hrs by serial dilution method
Candida albicans [3] = assay: Antifungal activity against Candida albicans at 100 ug/ml by disc diffusion method; conditions: read-out: IZ
Candida albicans [4] = assay: Antifungal activity against Candida albicans after 24 hrs by serial dilution method

Structure (SMILES)	zone of inhibition at 100 µg/mL (Aspergillus fumigatus [1]) [mm]	MIC (Aspergillus fumigatus [2]) [mg/L]	zone of inhibition at 100 µg/mL (Candida albicans [3]) [mm]	MIC (Candida albicans [4]) [mg/L]
OC(Cn1cncn1)(Cn1cncn1)c1ccc(F)cc1F [FLUCONAZOLE]	26	30 (≈ 98 µM)	24	30 (≈ 98 µM)
Cc1ccc2nc(Cl)c(Cn3nnc(Cc4ccccc4)n3)cc2c1	12	25 (≈ 71.5 µM)	12	25 (≈ 71.5 µM)
COc1ccc2nc(Cl)c(Cn3nnc(CSc4ccccc4)n3)cc2c1	20	10 (≈ 25.1 µM)	16	25 (≈ 62.8 µM)
Clc1nc2ccc(Br)cc2cc1Cn1nnc(CSc2ccccc2)n1	15	5 (≈ 11.2 µM)	18	25 (≈ 56 µM)

Source: ChEMBL document CHEMBL4004849, “Tetrazolylmethyl quinolines: Design, docking studies, synthesis, anticancer and antifungal analyses” (2017)
